Measurements: ChEMBL document CHEMBL4330071 (Eur J Med Chem, 2019)

How the values were obtained:
[1] = biological target: Platelet-derived growth factor receptor alpha (Homo sapiens, UniProt P16234); test: Inhibition of human PDGFRalpha assessed as residual activity at 10 uM using poly[Glu:Tyr] (4:1) as substrate preincubated for 20 mins followed by [gamma-33P]-ATP addition and measured after 120 mins by Hotspot assay relative to control
[2] = biological target: CDK6/cyclin D1 (Homo sapiens) (UniProt P24385+Q00534); test: Inhibition of human CDK6/cyclin-D1 assessed as residual activity at 10 uM using RB protein as substrate preincubated for 20 mins followed by [gamma-33P]-ATP addition and measured after 120 mins by Hotspot assay relative to control; format: protein-complex assay
[3] = biological target: Insulin-like growth factor 1 receptor (Homo sapiens) (UniProt P08069); test: Inhibition of human IGF1R assessed as residual activity at 10 uM using KKKSPGEYVNIEFG as substrate preincubated for 20 mins followed by [gamma-33P]-ATP addition and measured after 120 mins by Hotspot assay relative to control
[4] = biological target: Cyclin-dependent kinase 4/cyclin D1 (Homo sapiens, UniProt P11802); test: Inhibition of human CDK4/cyclin-D1 using RB protein as substrate preincubated for 20 mins followed by [gamma-33P]-ATP addition and measured after 120 mins by Hotspot assay; format: protein-complex assay
Chain of Cyclin-dependent kinase 4/cyclin D1 (P11802 whole entry): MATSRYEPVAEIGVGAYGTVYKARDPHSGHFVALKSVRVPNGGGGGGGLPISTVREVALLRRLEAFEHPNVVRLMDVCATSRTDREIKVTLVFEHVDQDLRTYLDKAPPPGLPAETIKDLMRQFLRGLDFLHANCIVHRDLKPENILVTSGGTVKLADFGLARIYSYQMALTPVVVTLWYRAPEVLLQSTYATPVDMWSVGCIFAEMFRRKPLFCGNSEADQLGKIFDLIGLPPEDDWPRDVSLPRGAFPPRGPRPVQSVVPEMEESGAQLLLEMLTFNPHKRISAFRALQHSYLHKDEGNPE
Chain of Cyclin-dependent kinase 4/cyclin D1 (P24385 whole entry, further chain): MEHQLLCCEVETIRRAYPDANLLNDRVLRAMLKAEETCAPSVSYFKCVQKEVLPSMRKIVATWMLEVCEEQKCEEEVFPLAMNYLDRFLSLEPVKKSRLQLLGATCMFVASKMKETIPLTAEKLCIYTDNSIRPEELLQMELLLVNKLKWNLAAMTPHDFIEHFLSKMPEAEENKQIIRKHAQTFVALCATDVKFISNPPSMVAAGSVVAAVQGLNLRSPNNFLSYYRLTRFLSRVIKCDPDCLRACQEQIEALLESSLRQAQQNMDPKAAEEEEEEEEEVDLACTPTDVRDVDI

[5] = biological target: Serine/threonine-protein kinase Chk1 (Homo sapiens, UniProt O14757); test: Inhibition of human CHK1 using KKKVSRSGLYRSPSMPENLNRPR as substrate preincubated for 20 mins followed by [gamma-33P]-ATP addition and measured after 120 mins by Hotspot assay
Chain of Serine/threonine-protein kinase Chk1 (O14757 whole entry, the tested form may be a part): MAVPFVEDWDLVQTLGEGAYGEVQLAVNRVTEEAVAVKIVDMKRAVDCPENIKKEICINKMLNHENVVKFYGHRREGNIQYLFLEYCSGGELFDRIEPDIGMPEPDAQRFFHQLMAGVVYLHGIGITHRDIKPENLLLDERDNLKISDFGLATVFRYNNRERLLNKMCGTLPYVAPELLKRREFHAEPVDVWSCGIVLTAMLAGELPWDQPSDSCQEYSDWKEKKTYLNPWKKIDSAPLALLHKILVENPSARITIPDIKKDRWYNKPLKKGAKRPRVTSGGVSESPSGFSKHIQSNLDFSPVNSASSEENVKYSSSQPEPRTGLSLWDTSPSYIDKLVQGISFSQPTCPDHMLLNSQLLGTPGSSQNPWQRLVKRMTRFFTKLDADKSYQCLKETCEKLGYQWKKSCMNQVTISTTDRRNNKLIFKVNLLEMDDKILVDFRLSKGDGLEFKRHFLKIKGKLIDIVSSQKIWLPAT

[6] = biological target: Tyrosine-protein kinase ABL1 (Homo sapiens, UniProt P00519, F317I); test: Binding affinity to human non-phosphorylated ABL1 F317I mutant (S229 to K512 residues) expressed in mammalian expression system after 60 mins by Kinomescan method
MCF7 = test: Growth inhibition of human MCF7 cells at 10 uM after 72 hrs by CellTiter-Glo assay relative to control; format: functional; details: MCF7, 72 h, read-out: GI
MV4-11 [7] = test: Induction of apoptosis in human MV4-11 cells assessed as late apoptotic cells at 1 uM after 24 hrs by Annexin V-FITC/propidium iodide staining based flow cytometric analysis (reference value: 1.42%); format: functional
[8] = biological target: Tyrosine-protein kinase ABL1 (Homo sapiens, UniProt P00519, F317L); test: Binding affinity to human phosphorylated ABL1 F317L mutant (S229 to K512 residues) expressed in mammalian expression system after 60 mins by Kinomescan method
MV4-11 [9] = test: Induction of apoptosis in human MV4-11 cells assessed as late apoptotic cells at 0.05 uM after 24 hrs by Annexin V-FITC/propidium iodide staining based flow cytometric analysis (reference value: 1.42%); format: functional
SMMC-7721 = test: Growth inhibition of human SMMC7721 cells at 10 uM after 72 hrs by CellTiter-Glo assay relative to control; format: functional; details: SMMC-7721, 72 h, read-out: GI
[10] = biological target: Mitogen-activated protein kinase 14 (Homo sapiens) (UniProt Q16539); test: Inhibition of human p38alpha assessed as residual activity at 10 uM using MBP as substrate preincubated for 20 mins followed by [gamma-33P]-ATP addition and measured after 120 mins by Hotspot assay relative to control
[11] = biological target: Mitogen-activated protein kinase 1 (Homo sapiens) (UniProt P28482); test: Inhibition of human ERK2 assessed as residual activity at 10 uM using MBP as substrate preincubated for 20 mins followed by [gamma-33P]-ATP addition and measured after 120 mins by Hotspot assay relative to control
[12] = biological target: Hepatocyte growth factor receptor (Homo sapiens) (UniProt P08581); test: Inhibition of human c-MET assessed as residual activity at 10 uM using KKKSPGEYVNIEFG as substrate preincubated for 20 mins followed by [gamma-33P]-ATP addition and measured after 120 mins by Hotspot assay relative to control
[13] = biological target: Mast/stem cell growth factor receptor Kit (Homo sapiens, UniProt P10721); test: Binding affinity to wild-type human partial length autoinhibited KIT (Y545 to D952 residues) expressed in mammalian expression system after 60 mins by Kinomescan method
[14] = biological target: T1, Vascular endothelial growth factor receptor 2 (Homo sapiens, UniProt P35968); test: Inhibition of human KDR using poly[Glu:Tyr] (4:1) as substrate preincubated for 20 mins followed by [gamma-33P]-ATP addition and measured after 120 mins by Hotspot assay
T1 sequence (P35968 whole entry): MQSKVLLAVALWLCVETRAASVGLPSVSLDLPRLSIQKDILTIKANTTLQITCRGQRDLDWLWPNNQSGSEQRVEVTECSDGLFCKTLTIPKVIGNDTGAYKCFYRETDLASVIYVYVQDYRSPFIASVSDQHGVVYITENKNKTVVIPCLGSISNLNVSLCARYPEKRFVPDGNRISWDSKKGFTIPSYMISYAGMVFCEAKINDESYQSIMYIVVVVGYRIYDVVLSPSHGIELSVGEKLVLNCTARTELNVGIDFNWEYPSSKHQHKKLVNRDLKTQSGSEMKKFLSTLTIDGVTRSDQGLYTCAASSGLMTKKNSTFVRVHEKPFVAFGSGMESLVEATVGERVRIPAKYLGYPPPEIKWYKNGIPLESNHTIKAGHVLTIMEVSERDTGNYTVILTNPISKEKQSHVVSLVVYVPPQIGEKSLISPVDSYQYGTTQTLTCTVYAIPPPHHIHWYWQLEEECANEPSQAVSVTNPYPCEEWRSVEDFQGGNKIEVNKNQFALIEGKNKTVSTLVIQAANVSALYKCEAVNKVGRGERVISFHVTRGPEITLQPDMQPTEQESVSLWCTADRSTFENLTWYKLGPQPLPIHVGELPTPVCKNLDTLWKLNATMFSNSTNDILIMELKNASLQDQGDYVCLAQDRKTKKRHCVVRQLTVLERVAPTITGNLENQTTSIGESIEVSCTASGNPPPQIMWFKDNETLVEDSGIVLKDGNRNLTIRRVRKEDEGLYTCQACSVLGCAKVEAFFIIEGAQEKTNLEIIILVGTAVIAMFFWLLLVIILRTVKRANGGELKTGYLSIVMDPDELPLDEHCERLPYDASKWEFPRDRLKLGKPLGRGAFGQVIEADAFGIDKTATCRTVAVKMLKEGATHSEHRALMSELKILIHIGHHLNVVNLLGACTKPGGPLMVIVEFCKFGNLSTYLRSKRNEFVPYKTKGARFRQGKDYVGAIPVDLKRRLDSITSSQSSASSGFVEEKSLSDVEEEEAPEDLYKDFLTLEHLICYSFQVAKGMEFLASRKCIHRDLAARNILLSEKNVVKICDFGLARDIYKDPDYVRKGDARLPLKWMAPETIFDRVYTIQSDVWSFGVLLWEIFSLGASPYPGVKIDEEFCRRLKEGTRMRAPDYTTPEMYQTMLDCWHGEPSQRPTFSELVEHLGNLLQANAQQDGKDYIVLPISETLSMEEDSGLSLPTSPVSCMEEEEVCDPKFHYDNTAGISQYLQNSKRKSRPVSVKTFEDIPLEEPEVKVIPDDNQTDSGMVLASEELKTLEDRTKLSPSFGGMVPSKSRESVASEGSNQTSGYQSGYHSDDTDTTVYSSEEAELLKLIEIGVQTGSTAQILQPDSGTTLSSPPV

[15] = biological target: Tyrosine-protein kinase Lck (Homo sapiens, UniProt P06239); test: Inhibition of human LCK assessed as residual activity at 10 uM using poly[Glu:Tyr] (4:1) as substrate preincubated for 20 mins followed by [gamma-33P]-ATP addition and measured after 120 mins by Hotspot assay relative to control
MV4-11 [16] = test: Induction of apoptosis in human MV4-11 cells assessed as necrotic cells at 0.5 uM after 24 hrs by Annexin V-FITC/propidium iodide staining based flow cytometric analysis (reference value: 0%); format: functional
MV4-11 [17] = test: Induction of apoptosis in human MV4-11 cells assessed as early apoptotic cells at 0.05 uM after 24 hrs by Annexin V-FITC/propidium iodide staining based flow cytometric analysis (reference value: 3.39%); format: functional
[18] = biological target: Macrophage colony-stimulating factor 1 receptor (Homo sapiens, UniProt P07333); test: Binding affinity to wild-type human partial length CSF1R (I564 to S939 residues) expressed in bacterial expression system after 60 mins by Kinomescan method
Chain of Macrophage colony-stimulating factor 1 receptor (P07333 whole entry, the tested form may be a part): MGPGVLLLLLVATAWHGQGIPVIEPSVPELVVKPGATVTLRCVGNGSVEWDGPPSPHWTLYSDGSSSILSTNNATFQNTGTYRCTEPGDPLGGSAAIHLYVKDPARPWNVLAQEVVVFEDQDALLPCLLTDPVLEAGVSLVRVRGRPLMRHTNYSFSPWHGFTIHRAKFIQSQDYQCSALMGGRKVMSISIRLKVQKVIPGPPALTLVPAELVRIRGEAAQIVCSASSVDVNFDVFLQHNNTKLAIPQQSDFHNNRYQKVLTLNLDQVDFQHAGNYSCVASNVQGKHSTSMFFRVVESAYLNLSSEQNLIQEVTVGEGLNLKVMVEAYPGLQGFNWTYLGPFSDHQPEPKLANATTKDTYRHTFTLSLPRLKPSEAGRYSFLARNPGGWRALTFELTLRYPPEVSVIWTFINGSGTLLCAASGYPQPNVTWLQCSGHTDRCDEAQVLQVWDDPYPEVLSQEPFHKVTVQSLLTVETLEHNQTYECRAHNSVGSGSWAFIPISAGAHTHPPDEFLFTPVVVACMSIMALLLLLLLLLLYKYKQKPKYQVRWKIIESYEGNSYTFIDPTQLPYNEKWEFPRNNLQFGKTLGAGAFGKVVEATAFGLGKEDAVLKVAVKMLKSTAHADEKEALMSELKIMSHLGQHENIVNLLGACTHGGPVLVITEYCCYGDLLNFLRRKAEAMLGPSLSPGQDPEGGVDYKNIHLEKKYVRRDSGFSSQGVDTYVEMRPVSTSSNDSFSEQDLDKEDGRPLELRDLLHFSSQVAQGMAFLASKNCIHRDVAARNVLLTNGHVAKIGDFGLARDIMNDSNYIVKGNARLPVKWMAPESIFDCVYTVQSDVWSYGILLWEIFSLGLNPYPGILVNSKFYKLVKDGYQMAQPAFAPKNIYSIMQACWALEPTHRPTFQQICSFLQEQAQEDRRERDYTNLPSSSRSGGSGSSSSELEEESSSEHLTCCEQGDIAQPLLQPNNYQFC

[19] = biological target: Proto-oncogene tyrosine-protein kinase Src (Homo sapiens, UniProt P12931); test: Inhibition of human c-SRC using poly[Glu:Tyr] (4:1) as substrate preincubated for 20 mins followed by [gamma-33P]-ATP addition and measured after 120 mins by Hotspot assay
Chain of Proto-oncogene tyrosine-protein kinase Src (P12931 2-536 limits assumed): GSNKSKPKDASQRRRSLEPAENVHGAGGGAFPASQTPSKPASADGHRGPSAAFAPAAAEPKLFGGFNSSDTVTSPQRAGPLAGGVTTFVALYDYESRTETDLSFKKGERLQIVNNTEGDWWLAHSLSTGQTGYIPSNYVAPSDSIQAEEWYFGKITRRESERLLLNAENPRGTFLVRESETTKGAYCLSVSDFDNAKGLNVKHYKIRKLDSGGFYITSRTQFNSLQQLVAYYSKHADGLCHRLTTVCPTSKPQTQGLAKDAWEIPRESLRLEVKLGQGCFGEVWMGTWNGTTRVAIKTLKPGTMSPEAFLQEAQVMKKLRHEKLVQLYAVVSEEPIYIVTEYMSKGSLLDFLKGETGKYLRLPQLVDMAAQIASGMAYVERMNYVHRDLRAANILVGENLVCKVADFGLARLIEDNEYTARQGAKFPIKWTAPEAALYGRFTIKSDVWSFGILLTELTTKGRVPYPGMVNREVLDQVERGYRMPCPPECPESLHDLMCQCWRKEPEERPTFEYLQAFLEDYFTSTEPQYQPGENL

[20] = biological target: Tyrosine-protein kinase ABL1 (Homo sapiens, UniProt P00519, Q252H); test: Binding affinity to human non-phosphorylated ABL1 Q252H mutant (S229 to K512 residues) expressed in mammalian expression system after 60 mins by Kinomescan method
[21] = biological target: T1, Vascular endothelial growth factor receptor 2; test: Inhibition of human KDR assessed as residual activity at 10 uM using poly[Glu:Tyr] (4:1) as substrate preincubated for 20 mins followed by [gamma-33P]-ATP addition and measured after 120 mins by Hotspot assay relative to control
[22] = biological target: Glycogen synthase kinase-3 beta (Homo sapiens) (UniProt P49841); test: Inhibition of human GSK3B assessed as residual activity at 10 uM using YRRAAVPPSPSLSRHSSPHQ(pS)EDEEE as substrate preincubated for 20 mins followed by [gamma-33P]-ATP addition and measured after 120 mins by Hotspot assay relative to control
[23] = biological target: Tyrosine-protein kinase JAK2 (Homo sapiens) (UniProt O60674); test: Inhibition of human JAK2 assessed as residual activity at 10 uM using poly[Glu:Tyr] (4:1) as substrate preincubated for 20 mins followed by [gamma-33P]-ATP addition and measured after 120 mins by Hotspot assay relative to control
Chain of Tyrosine-protein kinase JAK2 (Homo sapiens) (O60674 whole entry): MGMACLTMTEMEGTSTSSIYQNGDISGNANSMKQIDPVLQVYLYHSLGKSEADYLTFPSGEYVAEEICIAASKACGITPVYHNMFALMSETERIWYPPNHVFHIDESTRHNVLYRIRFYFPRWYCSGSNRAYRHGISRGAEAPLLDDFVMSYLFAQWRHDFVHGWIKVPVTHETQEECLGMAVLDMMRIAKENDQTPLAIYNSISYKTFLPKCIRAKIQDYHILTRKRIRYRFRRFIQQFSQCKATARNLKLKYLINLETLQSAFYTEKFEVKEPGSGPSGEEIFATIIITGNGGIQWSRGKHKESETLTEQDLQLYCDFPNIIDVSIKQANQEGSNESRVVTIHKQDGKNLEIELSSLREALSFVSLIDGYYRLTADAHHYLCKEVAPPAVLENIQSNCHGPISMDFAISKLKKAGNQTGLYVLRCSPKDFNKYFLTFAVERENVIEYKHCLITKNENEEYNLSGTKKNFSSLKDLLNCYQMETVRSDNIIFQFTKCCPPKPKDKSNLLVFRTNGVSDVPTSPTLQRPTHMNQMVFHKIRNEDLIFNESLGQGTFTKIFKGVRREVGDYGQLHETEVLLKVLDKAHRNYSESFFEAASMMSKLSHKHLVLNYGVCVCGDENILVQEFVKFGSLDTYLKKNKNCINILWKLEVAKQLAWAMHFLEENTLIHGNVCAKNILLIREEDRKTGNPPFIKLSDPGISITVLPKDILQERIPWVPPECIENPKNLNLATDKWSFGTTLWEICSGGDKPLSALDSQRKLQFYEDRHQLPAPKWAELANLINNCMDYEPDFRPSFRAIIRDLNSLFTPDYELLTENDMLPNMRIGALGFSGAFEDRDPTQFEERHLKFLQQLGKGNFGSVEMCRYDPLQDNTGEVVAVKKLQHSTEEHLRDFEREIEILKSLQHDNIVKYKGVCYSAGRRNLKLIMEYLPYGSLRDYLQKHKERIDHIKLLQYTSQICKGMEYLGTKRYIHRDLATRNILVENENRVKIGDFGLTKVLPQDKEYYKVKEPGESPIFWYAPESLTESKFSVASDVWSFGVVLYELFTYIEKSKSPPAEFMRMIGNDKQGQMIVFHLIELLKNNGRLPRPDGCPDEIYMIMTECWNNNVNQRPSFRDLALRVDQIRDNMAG

[24] = Half life in rat liver microsomes at 1 uM after 5 to 60 mins in presence of NADPH by LC-MS/MS analysis; format: ADME, Microsome

Q: For `CN1CCC(Nc2ccc(C(=O)Nc3cc(-c4cc(C#N)cs4)n[nH]3)cc2)CC1`, which Activity [1] is on record?
A: Its Activity is 30.2%.

Q: And the Activity [2]?
A: Its Activity is 20.1%.

Q: And the Activity [3]?
A: The Activity was 94.8%.

Q: What about the IC50 ([4]; read-out: IC50) of the same compound?
A: The IC50 was > 10000 nM.

Q: And the IC50 ([4]; read-out: pIC50 (converted))?
A: The IC50 was 10000 nM.

Q: And the IC50 ([5]; read-out: IC50)?
A: The IC50 was 1530 nM.

Q: What about the IC50 ([5]; read-out: pIC50 (converted)) of the same compound?
A: Its IC50 is 1580 nM.

Q: And the Kd [6]?
A: The Kd was > 10000 nM.

Q: And the inhibition of growth at 10 µM (MCF7)?
A: The inhibition of growth at 10 µM was 0.83%.

Q: What about the Activity (MV4-11 [7]) of the same compound?
A: Its Activity is 27.75%.

Q: And the Kd [8]?
A: Its Kd is 460 nM.

Q: What about the Activity (MV4-11 [9]) of the same compound?
A: The Activity was 14.8%.

Q: What about the inhibition of growth at 10 µM (SMMC-7721) of the same compound?
A: Its inhibition of growth at 10 µM is 1.47%.

Q: And the Activity [10]?
A: The Activity was 98.4%.

Q: And the Activity [11]?
A: The Activity was 102%.

Q: And the Activity [12]?
A: The Activity was 74.5%.

Q: And the Kd [13]?
A: The Kd was 72 nM.

Q: And the IC50 [14]?
A: The IC50 was 6260 nM.

Q: And the Activity [15]?
A: The Activity was 8.39%.

Q: What about the Activity (MV4-11 [16]) of the same compound?
A: Its Activity is 4.89%.

Q: What about the Activity (MV4-11 [17]) of the same compound?
A: Its Activity is 21.04%.

Q: And the Kd [18]?
A: The Kd was 47 nM.

Q: What about the IC50 [19] of the same compound?
A: Its IC50 is 2400 nM.

Q: And the Kd [20]?
A: Its Kd is 350 nM.

Q: What about the Activity [21] of the same compound?
A: Its Activity is 34%.

Q: And the Activity [22]?
A: The Activity was 72.8%.

Q: And the Activity [23]?
A: Its Activity is 80.7%.

Q: And the half-life at 1 µM [24]?
A: Its half-life at 1 µM is 8.1 min.
